The target in experiment [1] is T1, human estrogen receptor-alpha (Homo sapiens, UniProt P03372).
T1 construct: made in house; host or cells: yeast strain BJ2168 (copper induced)
T1 sequence (P03372 1-595): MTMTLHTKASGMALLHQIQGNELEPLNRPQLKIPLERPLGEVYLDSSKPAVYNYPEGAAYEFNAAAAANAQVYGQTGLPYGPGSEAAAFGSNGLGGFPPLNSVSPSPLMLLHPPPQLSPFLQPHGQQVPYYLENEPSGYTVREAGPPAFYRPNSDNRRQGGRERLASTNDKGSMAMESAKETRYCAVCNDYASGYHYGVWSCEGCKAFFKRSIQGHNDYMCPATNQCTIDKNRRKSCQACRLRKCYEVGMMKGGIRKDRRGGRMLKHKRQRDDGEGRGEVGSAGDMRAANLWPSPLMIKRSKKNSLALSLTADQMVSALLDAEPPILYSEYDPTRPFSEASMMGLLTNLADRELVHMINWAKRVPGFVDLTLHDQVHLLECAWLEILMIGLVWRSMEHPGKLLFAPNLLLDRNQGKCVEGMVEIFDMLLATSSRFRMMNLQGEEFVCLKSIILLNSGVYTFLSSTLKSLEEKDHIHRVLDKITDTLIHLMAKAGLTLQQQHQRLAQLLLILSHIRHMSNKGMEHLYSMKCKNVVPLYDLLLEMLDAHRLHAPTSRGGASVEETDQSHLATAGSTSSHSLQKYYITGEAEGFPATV
Kind of experiment: soluble estrogen receptor-alpha (ER-α) binding assay, [3H]-estradiol. The source says:
For soluble estrogen receptor-alpha (ER-α) binding assays, [^3 H]- Estradiol (120-140 Ci/mmol) was purchased from New England Nuclear (Boston, Mass.), 17-beta estradiol was purchased from Sigma Chemical Co. (St. Louis, Mo.), CHAPS and DTT were purchased from Boehringer Mannheim GmbH (W. Germany) and all other reagents were purchased from Sigma.
The human estrogen receptor-alpha cDNA was cloned into a yeast vector termed pYhERα and used to transform wild type yeast strain BJ2168 following the protocol outlined by Pham, T. A., Hwung Y. P., Santiso-Mere,D., McDonnell D. P., O'Malley, B. W., Ligand-Dependent and Independent Function of the Transactivation Regions of the Human Estrogen Receptor in Yeast, Mol. Endocrinol. […] The yeast was induced with copper for 16 hours after which the cells were harvested, washed and the receptor extract prepared in cold buffer via a Bead Beater (BioSpec Products, Bartlesville, Okla.). Aliquots of the receptor typically contained 5-10 mg/ml of total protein and were stored at -80° C. until used. Estradiol or other competing compounds were prepared as 5 mM stock solutions in either 100% ethanol or DMSO and serial dilutions were carried out in 1:1 DMSO-ethanol. The assay buffer consisted of the following: 300 mM potassium chloride, 10 mM Trizma Base, 2 mM DTT and 5 mM CHAPS, pH=7.5 at room temperature.
Assays were set up using a 96-well minitube system and incubations were carried out at 4° C. for 18 hours. Equilibrium under these conditions of buffer and temperature was achieved by 6-8 hours. Nonspecific binding was defined as that binding remaining in the presence of 1000 nM unlabeled estradiol. […] The amount of receptor-ligand complex was determined by liquid scintillation counting of the hydroxyapatite pellet after the addition of […] EcoScint A scintillation cocktail from National Diagnostics (Atlanta, Ga.).
After correcting for nonspecific binding, IC50 values were determined. […] The IC50 values were determined graphically from a log-logit plot of the data.

The target in experiment [2] is T2, human glucocorticoid receptor-α [GRX] isoform (Homo sapiens, UniProt P04150).
T2 construct: purchased Ligand Pharmaceuticals (San Diego, Calif.); host or cells: insect SF21 cells (baculovirus)
T2 sequence (P04150 1-777): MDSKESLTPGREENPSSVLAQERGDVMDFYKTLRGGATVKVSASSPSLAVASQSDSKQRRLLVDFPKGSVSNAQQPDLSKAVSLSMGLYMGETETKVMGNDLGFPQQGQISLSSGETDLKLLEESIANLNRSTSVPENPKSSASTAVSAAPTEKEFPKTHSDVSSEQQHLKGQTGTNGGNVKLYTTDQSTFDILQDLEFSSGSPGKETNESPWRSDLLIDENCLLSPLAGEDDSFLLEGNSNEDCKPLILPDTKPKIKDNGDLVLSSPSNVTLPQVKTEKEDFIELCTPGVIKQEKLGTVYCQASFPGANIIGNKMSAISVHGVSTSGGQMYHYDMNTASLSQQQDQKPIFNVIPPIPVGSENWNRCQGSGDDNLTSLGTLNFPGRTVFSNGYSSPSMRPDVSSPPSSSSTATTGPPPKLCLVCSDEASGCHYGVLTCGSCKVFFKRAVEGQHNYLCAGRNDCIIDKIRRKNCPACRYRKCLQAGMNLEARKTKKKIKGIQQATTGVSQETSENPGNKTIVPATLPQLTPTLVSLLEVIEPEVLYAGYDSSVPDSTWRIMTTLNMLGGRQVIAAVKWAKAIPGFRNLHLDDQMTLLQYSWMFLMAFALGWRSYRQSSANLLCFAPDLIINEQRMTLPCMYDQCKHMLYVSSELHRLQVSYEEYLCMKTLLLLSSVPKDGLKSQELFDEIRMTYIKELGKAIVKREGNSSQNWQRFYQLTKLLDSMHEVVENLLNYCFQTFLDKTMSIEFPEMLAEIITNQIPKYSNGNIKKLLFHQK
In words: glucocorticoid receptor (GR) cytosol binding assay, [3H]-dexamethasone. Particulars: displacement of [3H]-Dex (~0.9 nM), 4° C. overnight.
From the text: Briefly, cytosol preparations of human glucocorticoid receptor-α [GRX] isoform and human progesterone receptor-A [PRA] isoform were obtained from Ligand Pharmaceuticals (San Diego, Calif.). Both receptor cDNAs were cloned into baculovirus expression vectors and expressed in insect SF21 cells. [^3 H]-dexamethasone (Dex, specific activity 82-86 Ci/mmole) and [^3 H]-progesterone (Prog, specific activity 97-102 Ci/mmol) were purchased from Amersham Life Sciences (Arlington Heights, Ill.). Glass fiber type C multiscreen MAFC NOB plates were from Millipore (Burlington, Mass.). Hydroxyapatide Bio-Gel HTP gel was obtained from Bio-Rad Laboratories (Hercules, Calif.). Tris(hydroxymethyl)aminomethane (Tris), ethylenediaminetetraacetic acid (EDTA), glycerol, dithiothreitol (DTT) and sodium moylybdate were obtained from Sigma Chemicals (St. Louis, Mo.). […]
After an overnight incubation, 50 μL of hydroxyapatite (25% weight/volume) slurry were added to each well and plates were incubated for 10 min at 4° C. in a plate shaker. […] The amount of radioactivity was determined with a Packard TopCount plate reader.
The Ki of test compounds was determined using the Cheng-Prusoff equation Ki =IC50 /(1+[L*]/[KL ]) where L* is the concentration of radioligand and KL is the dissociation constant of the radioligand determined from saturation analysis.

[3] abbreviates: displacement of [3H]-estradiol (2-3 nM), 4° C., 18 hours, read-out: Ki ER-α.

Each structure is given as a SMILES string. pKi: −log10 of the molar value. Read-outs that look alike come from different tables or passages of the source.

On to `CN(C)c1ccc(C(c2ccc(N(C)C)cc2)c2cc(Cl)ccc2Cl)cc1` [Example 24, 4',4"bis(dimethylamino)-2,5-dichlorotriphenylmethane], for which the pKi in experiment [1] is under 5.00.
Take `CC(=O)OCCN(C)c1ccc(C(c2ccc(N(C)CCOC(C)=O)cc2)c2cc([N+](=O)[O-])ccc2Cl)cc1` [Example 31, 4',4"bis(N-(2-acetoxyethyl) N-methylamino)-2-chloro-5-nitrotriphenylmethane]: the pKi in experiment [1] (setting [3]) was under 5.00.
Still for that read-out and setting: the value for `CN(CCO)c1ccc(C(c2ccc(N(C)CCO)cc2)c2cc([N+](=O)[O-])ccc2Cl)cc1` [Example 32, 4',4"bis(N-(2-hydroxyethyl) N-methylamino)-2-chloro-5-nitrotriphenylmethane] was under 5.00.
Regarding `CN(C(=O)OC(C)(C)C)c1ccc(C(c2ccc(N(C)C(=O)OC(C)(C)C)cc2)c2cc([N+](=O)[O-])ccc2Cl)cc1` [Example 35, 4',4"bis(N-(t-butoxycarbonyl) N-methylamino)-2-chloro-5-nitrotriphenylmethane], the pKi in experiment [2] was 5.34.
Same read-out and setting: the value for `CN(C)c1ccc(C(c2ccc(N(C)C)cc2)c2cc(NC(=O)/C=C/c3ccc([N+](=O)[O-])cc3)ccc2Cl)cc1` [Example 61, 4',4"bis(dimethylamino)-2-chloro-5-(4-nitrocinnamido)triphenylmethane] was 5.34.
